Assay: solubility of crystalline form
Format: physicochemical

solubility: poor solubility
Structure (SMILES): CS[C@@]1(C(=O)Nc2ccc3[nH]nc(-c4ccc(OC(C)C)nc4)c3c2)CCN(CC(=O)N2CC=C(c3ccc(-c4ncn(C)n4)cc3)CC2)C1 [crystalline hydrate Form 2, (S)—N-(3-(6-isopropoxypyridin-3-yl)-1H-indazol-5-yl)-1-(2-(4-(4-(1-methyl-1H-1,2,4-triazol-3-yl)phenyl)-3,6-dihydropyridin-1(2H)-yl)-2-oxoethyl)-3-(methylthio)pyrrolidine-3-carboxamide]
